One data set can be described thus: Thermodynamic solubility. It is filed as physicochemical. To be noted: aqueous buffer, thermodynamic from solid; phosphate buffered saline, pH 7.4; ambient temperature overnight. The method, then: Test compound (2.5 mg of solid; n=1) is weighed in a clear glass vial and buffer (0.5 mL) is added (phosphate buffered saline, pH 7.4). The solution is agitated at ambient temperature overnight using a vial roller system. […] Duplicate aliquots (50 μL) are sampled from the filtrate and diluted with one volume of 0.1 N hydrochloric acid and methanol (1:1 v/v) before analysis by HPLC-UV. […] The concentration of test compound in the filtrate is quantified relative to the concentration standard.
Analysis is performed using a gradient HPLC-UV system with a total cycle time of six minutes.

Data set [1] is described as follows: Caco-2 permeability (bi-directional; pH 7.4/pH 7.4). To be noted: human; for Papp A→B at 120 min, 10 μM: Caco-2, pH 7.4, read-out: Permeability (cm^2/s × 10^6). It is filed as in vitro ADME. The method, then: Caco-2 cells are used as an in vitro model of the human intestinal epithelium and permit assessment of the intestinal permeability of potential drugs. Test compound is added to either the apical or basolateral side of a confluent monolayer of Caco-2 cells and permeability is measured by monitoring the appearance of the test compound on the opposite side of the membrane using LC-MS/MS. Apparent permeability (Papp) coefficients, efflux ratio for the test compound and recovery values were determined.
To measure the permeability of test compound in the apical to basolateral (A-B) and basolateral to apical (B-A) direction across Caco-2 cells.
Caco-2 cells obtained from the ATCC are used between passage numbers 40-60. Cells are seeded on to Millipore Multiscreen Caco-2 plates at 1×10^5 cells/cm^2. They are cultured for 20 days in DMEM and media is changed every two or three days. On day 20 the permeability study is performed.
On day 20, the monolayers are prepared by rinsing both basolateral and apical surfaces twice with HBSS at 37° C. Cells are then incubated with HBSS in both apical and basolateral compartments for 40 min to stabilize physiological parameters. HBSS is then removed from the apical compartment and replaced with test compound dosing solutions. […] The fluorescent integrity marker lucifer yellow is also included in the dosing solution. Analytical standards are made from dosing solutions. The apical compartment inserts are then placed into ‘companion’ plates containing fresh HBSS. For basolateral to apical (B-A) permeability determination the experiment is initiated by replacing buffer in the inserts then placing them in companion plates containing dosing solutions. At 120 minutes the companion plate is removed and apical and basolateral samples diluted for analysis by LC-MS/MS. Test compound permeability was assessed in duplicate. On each plate, compounds of known permeability characteristics were run as controls.
Test and control compounds were quantified by LC-MS/MS cassette analysis using a 5-point calibration with appropriate dilution of the samples. Cyprotex generic analytical conditions were used. The starting concentration (C0) and experimental recovery were calculated from both apical and basolateral compartment concentrations.
The integrity of the monolayers throughout the experiment was checked by monitoring lucifer yellow permeation using fluorimetric analysis. Lucifer yellow permeation is low if monolayers have not been damaged. […] If lucifer yellow Papp values are above QC limits in both replicate wells for a test compound, the compound was re-tested.
Data Analysis: The permeability coefficient for each compound (Papp) is calculated from the following equation: […]
wherein dQ/dt is the rate of permeation of the drug across the cells, C0 is the donor compartment concentration at time zero and A is the area of the cell monolayer. C0 is obtained from analysis of donor and receiver compartments at the end of the incubation period. It is assumed that all of the test compound measured after 120 minutes incubation was initially present in the donor compartment at 0 minutes. An efflux ratio (ER) is derived as follows:
Talinolol (a known P-gp substrate) is also included as a control compound to assess whether functional P-gp is present in the Caco-2 cell monolayer.

The target of data set [2] is T1, ABL (Homo sapiens, UniProt P00519). The experiment in a line: Off-chip mobility-shift kinase assay (Caliper LABCHIP), ABL. To be noted: for ABL AVG % Activity at 1.0E−09: concentration 1.0E−09; for ABL AVG % Activity at 1.0E−10: concentration 1.0E−10; for ABL AVG % Activity at 3.0E−09: concentration 3.0E−09; for ABL AVG % Activity at 3.0E−10: concentration 3.0E−10; for ABL AVG % Activity at 1.0E−11: concentration 1.0E−11; for ABL AVG % Activity at 3.0E−11: concentration 3.0E−11.
T1 sequence (P00519 whole entry): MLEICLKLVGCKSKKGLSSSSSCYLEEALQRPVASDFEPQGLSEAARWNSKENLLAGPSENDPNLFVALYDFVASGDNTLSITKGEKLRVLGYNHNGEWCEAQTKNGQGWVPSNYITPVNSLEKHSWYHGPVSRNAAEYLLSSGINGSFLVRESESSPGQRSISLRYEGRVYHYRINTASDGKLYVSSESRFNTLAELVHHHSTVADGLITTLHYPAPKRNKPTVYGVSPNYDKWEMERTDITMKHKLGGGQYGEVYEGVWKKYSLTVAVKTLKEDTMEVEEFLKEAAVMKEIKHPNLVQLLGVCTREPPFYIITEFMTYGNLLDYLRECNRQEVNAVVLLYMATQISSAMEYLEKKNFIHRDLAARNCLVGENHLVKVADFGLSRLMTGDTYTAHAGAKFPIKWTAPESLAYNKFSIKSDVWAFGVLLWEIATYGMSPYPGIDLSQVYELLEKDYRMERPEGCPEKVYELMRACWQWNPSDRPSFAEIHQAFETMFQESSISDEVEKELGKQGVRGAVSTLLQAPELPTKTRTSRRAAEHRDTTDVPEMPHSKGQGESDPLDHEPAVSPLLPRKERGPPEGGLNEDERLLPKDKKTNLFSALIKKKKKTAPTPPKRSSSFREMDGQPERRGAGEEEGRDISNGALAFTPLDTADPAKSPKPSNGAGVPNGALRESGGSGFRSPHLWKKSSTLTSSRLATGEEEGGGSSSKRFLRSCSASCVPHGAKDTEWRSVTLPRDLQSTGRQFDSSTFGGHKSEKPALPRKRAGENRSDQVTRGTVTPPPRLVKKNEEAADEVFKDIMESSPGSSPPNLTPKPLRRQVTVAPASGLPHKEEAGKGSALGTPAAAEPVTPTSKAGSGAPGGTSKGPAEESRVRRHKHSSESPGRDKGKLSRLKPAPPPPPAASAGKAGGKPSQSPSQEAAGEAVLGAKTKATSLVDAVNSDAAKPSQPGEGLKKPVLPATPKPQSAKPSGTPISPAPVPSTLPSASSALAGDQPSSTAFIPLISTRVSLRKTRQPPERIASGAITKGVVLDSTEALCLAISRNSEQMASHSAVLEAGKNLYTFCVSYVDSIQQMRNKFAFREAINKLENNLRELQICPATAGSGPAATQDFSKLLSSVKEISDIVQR

A further data set concerns the target PDGFRβ (Homo sapiens, UniProt P09619). The data set is described as follows: Off-chip mobility-shift kinase assay (Caliper LABCHIP), PDGFR.
A further data set concerns the target cKIT (Homo sapiens, UniProt P10721). The experiment in a line: Off-chip mobility-shift kinase assay (Caliper LABCHIP), C-kit.
Data set [3] concerns the target T1, ABL.
The mark [4] stands for this setting: imatinib-corresponding compounds.
The mark [5] stands for this setting: dasatinib-corresponding compounds.

Values after ≈ are worked out from the molar mass of the structure shown. Read-outs that look alike come from different tables or passages of the source.

Chain of cKIT (P10721 26-976): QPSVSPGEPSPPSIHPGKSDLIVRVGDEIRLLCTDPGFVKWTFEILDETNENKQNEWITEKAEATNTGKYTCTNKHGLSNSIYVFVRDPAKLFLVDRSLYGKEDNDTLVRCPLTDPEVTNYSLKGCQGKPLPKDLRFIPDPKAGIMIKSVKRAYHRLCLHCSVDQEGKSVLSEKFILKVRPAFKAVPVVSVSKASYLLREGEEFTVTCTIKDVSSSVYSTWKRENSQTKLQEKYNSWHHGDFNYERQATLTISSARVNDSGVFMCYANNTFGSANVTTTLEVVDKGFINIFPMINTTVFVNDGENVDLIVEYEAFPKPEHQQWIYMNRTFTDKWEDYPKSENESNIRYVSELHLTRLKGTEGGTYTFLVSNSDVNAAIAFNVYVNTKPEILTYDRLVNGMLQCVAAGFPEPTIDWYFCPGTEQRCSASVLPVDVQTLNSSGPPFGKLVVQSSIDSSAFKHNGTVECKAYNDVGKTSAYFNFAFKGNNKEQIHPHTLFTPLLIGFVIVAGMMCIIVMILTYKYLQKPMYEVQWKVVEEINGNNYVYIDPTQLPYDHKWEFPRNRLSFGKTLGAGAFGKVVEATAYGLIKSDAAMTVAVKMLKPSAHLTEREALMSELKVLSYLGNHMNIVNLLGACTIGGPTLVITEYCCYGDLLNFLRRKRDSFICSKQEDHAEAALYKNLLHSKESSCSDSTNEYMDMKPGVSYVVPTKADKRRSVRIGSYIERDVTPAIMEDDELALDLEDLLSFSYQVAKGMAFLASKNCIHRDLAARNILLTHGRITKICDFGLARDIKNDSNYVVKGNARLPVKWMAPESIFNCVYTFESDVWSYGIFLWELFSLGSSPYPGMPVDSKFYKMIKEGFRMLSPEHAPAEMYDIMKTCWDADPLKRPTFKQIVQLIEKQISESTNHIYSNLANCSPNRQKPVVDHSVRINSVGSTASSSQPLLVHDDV
Chain of PDGFRβ (P09619 33-1106): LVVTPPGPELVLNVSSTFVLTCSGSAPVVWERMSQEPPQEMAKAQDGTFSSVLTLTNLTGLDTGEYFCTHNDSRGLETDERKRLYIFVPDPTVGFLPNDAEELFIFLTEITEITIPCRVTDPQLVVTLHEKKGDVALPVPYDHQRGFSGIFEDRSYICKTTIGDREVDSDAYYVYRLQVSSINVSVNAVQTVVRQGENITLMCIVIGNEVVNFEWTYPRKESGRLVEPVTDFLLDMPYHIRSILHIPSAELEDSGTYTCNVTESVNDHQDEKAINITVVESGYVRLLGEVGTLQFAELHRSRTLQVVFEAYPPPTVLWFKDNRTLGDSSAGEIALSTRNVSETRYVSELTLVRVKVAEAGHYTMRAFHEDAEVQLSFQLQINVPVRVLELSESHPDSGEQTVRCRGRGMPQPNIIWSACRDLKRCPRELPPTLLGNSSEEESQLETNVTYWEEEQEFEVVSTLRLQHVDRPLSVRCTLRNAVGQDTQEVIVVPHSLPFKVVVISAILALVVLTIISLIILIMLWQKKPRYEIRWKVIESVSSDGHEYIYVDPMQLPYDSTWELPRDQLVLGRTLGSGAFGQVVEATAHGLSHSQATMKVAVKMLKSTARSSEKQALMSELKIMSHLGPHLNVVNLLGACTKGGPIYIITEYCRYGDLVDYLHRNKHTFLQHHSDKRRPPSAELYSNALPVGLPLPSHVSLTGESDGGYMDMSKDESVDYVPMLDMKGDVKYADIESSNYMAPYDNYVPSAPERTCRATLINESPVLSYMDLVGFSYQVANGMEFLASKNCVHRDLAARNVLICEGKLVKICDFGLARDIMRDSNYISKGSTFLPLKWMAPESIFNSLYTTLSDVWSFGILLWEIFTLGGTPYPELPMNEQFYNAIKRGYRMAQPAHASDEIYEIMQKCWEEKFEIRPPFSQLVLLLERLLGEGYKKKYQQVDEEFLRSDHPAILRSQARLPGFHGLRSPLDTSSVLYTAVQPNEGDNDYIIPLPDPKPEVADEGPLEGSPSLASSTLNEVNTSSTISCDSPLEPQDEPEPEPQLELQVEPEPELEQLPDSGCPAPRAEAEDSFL

As for `COCCOCCOCCOCCOCCOCCOCCNCc1ccc(C(=O)Nc2ccc(C)c(Nc3nccc(-c4cccnc4)n3)c2)cc1`, the solubility in the data set “Thermodynamic solubility” came out at 3600 µg/mL (≈ 4.91 mM). Also, the Papp A→B at 120 min, 10 μM in data set [1] is 0.04 ± 0.01 ×10⁻⁶ cm/s. Besides, in data set [1] (Caco-2, ratio of B-A and A-B permeabilities, 10 μM, 120 minutes), the efflux ratio at 120 min, 10 μM was determined as 391. In addition, on ABL [2], the IC50 was ≥ 3000 nM. Further, on ABL [2] (concentration 1.0E−06, imatinib-corresponding compounds), the “ABL AVG % Activity at 1.0E−06” value was 73%. Besides, the “ABL AVG % Activity at 1.0E−07” value on ABL [2] (concentration 1.0E−07, imatinib-corresponding compounds) turned out to be 90%. Besides, at ABL [2] (concentration 1.0E−08, imatinib-corresponding compounds), the “ABL AVG % Activity at 1.0E−08” value came out at 94%. Also, on ABL [2] (setting [4]), the “ABL AVG % Activity at 1.0E−09” value was 97%, the “ABL AVG % Activity at 1.0E−10” value came out at 97%, the “ABL AVG % Activity at 3.0E−09” value was found to be 96% and the “ABL AVG % Activity at 3.0E−10” value was found to be 97%. Also, at ABL [2] (concentration 3.0E−06, imatinib-corresponding compounds), the “ABL AVG % Activity at 3.0E−06” value came to 59%. Further, the “ABL AVG % Activity at 3.0E−07” value at ABL [2] (concentration 3.0E−07, imatinib-corresponding compounds) is listed as 82%. Besides, at ABL [2] (concentration 3.0E−08, imatinib-corresponding compounds), the “ABL AVG % Activity at 3.0E−08” value is listed as 94%. Also, on PDGFRβ, the IC50 was 230 nM. Also, the “PDGFR AVG % Activity at 1.0E−06” value at PDGFRβ (concentration 1.0E−06) came to 13%. Further, the “PDGFR AVG % Activity at 1.0E−07” value at PDGFRβ (concentration 1.0E−07) is given as 67%. Besides, the “PDGFR AVG % Activity at 1.0E−08” value at PDGFRβ (concentration 1.0E−08) came to 96%. Also, at PDGFRβ (concentration 1.0E−09), the “PDGFR AVG % Activity at 1.0E−09” value was 93%. Further, the “PDGFR AVG % Activity at 1.0E−10” value at PDGFRβ (concentration 1.0E−10) turned out to be 97%. In addition, on PDGFRβ (concentration 3.0E−06), the “PDGFR AVG % Activity at 3.0E−06” value is listed as 0%. On PDGFRβ (concentration 3.0E−07), the “PDGFR AVG % Activity at 3.0E−07” value is 39%. For the same compound, the “PDGFR AVG % Activity at 3.0E−08” value on PDGFRβ (concentration 3.0E−08) worked out at 100%. The “PDGFR AVG % Activity at 3.0E−09” value on PDGFRβ (concentration 3.0E−09) stood at 99%. The “PDGFR AVG % Activity at 3.0E−10” value on PDGFRβ (concentration 3.0E−10) is recorded as 93%. Further, the IC50 on cKIT amounted to 1000 nM. Further, the “C-kit AVG % Activity at 1.0E−05” value on cKIT (concentration 1.0E−05) was 6%. Also, the “C-kit AVG % Activity at 1.0E−06” value at cKIT (concentration 1.0E−06) is recorded as 50%. For the same compound, the “C-kit AVG % Activity at 1.0E−07” value at cKIT (concentration 1.0E−07) came out at 88%. For the same compound, the “C-kit AVG % Activity at 1.0E−08” value at cKIT (concentration 1.0E−08) is reported as 100%. At cKIT (concentration 3.0E−05), the “C-kit AVG % Activity at 3.0E−05” value was 1%. Besides, at cKIT (concentration 3.0E−06), the “C-kit AVG % Activity at 3.0E−06” value amounted to 23%. The “C-kit AVG % Activity at 3.0E−07” value at cKIT (concentration 3.0E−07) is given as 76%. The “C-kit AVG % Activity at 3.0E−08” value on cKIT (concentration 3.0E−08) was determined as 95%. On cKIT (concentration 3.0E−09), the “C-kit AVG % Activity at 3.0E−09” value is given as 99%.
Take `COCCOCCOCCOCC(=O)OCCN1CCN(c2cc(Nc3ncc(C(=O)Nc4c(C)cccc4Cl)s3)nc(C)n2)CC1` [mPEG3-COO-Dasatinib]: on ABL [3], the “ABL AVG % Activity at 1.0E−09” value is reported as 2%, the “ABL AVG % Activity at 1.0E−10” value was found to be 80%, the “ABL AVG % Activity at 1.0E−11” value is reported as 98% and the “ABL AVG % Activity at 3.0E−09” value is given as −1%. On ABL [3], the “ABL AVG % Activity at 3.0E−10” value stood at 44% and the “ABL AVG % Activity at 3.0E−11” value was found to be 92%. At ABL [2], the IC50 was found to be 0.29 nM.
As for `COCCOCCOCCOCC(=O)NC(CC(C)C)C(=O)OCCN1CCN(c2cc(Nc3ncc(C(=O)Nc4c(C)cccc4Cl)s3)nc(C)n2)CC1` (stereo not shown) [mPEG3-Leu-Dasatinib], the IC50 at ABL [2] came to 0.43 nM. Moreover, on ABL [2] (setting [5]), the “ABL AVG % Activity at 1.0E−09” value is given as 14%, the “ABL AVG % Activity at 1.0E−10” value is 85%, the “ABL AVG % Activity at 1.0E−11” value is given as 99% and the “ABL AVG % Activity at 3.0E−09” value is listed as 1%. Besides, on ABL [2] (setting [5]), the “ABL AVG % Activity at 3.0E−10” value is on record as 62% and the “ABL AVG % Activity at 3.0E−11” value is recorded as 97%.
`COCCOCCOCCNCc1ccc(C(=O)Nc2ccc(C)c(Nc3nccc(-c4cccnc4)n3)c2)cc1` [mPEG3-N-Imatinib] showed a solubility in “Thermodynamic solubility” of 3300 µg/mL (≈ 5.93 mM). The Papp A→B at 120 min, 10 μM in data set [1] turned out to be 0.6 ± 0.07 ×10⁻⁶ cm/s.
For `COCCOCCOCCN1CCN(Cc2ccc(C(=O)Nc3ccc(C)c(Nc4nccc(-c5cccnc5)n4)c3)cc2)CC1` [mPEG3-N′-Imatinib] the same measures were 500 µg/mL (≈ 0.799 mM) and 4 ± 0.8 ×10⁻⁶ cm/s.
For `COCCOCCOCCOCC(=O)NC(C(=O)OCCN1CCN(c2cc(Nc3ncc(C(=O)Nc4c(C)cccc4Cl)s3)nc(C)n2)CC1)C(C)C` (stereo not shown) [mPEG3-Val-Dasatinib], the IC50 at ABL [2] stood at 0.37 nM. Also, on ABL [2] (setting [5]), the “ABL AVG % Activity at 1.0E−09” value is listed as 10%, the “ABL AVG % Activity at 1.0E−10” value was 85%, the “ABL AVG % Activity at 1.0E−11” value is on record as 98% and the “ABL AVG % Activity at 3.0E−09” value amounted to 0%. Further, at ABL [2] (setting [5]), the “ABL AVG % Activity at 3.0E−10” value was found to be 54% and the “ABL AVG % Activity at 3.0E−11” value worked out at 95%.
In the case of `COCCOCCOCCOCCOCCNC(=O)OCCN1CCN(c2cc(Nc3ncc(C(=O)Nc4c(C)cccc4Cl)s3)nc(C)n2)CC1` [mPEG5-NHCOO-Dasatinib], the IC50 on ABL [2] was 0.3 nM. At ABL [2] (setting [5]), the “ABL AVG % Activity at 1.0E−09” value is recorded as 4%, the “ABL AVG % Activity at 1.0E−10” value is listed as 80%, the “ABL AVG % Activity at 1.0E−11” value was found to be 97% and the “ABL AVG % Activity at 3.0E−09” value is given as −1%. In addition, at ABL [2] (setting [5]), the “ABL AVG % Activity at 3.0E−10” value is 45% and the “ABL AVG % Activity at 3.0E−11” value is 94%.
In “Thermodynamic solubility”, `COCCOCCOCCOCCOCCN1CCN(Cc2ccc(C(=O)Nc3ccc(C)c(Nc4nccc(-c5cccnc5)n4)c3)cc2)CC1` [mPEG5-N′-Imatinib] showed a solubility of 3300 µg/mL (≈ 4.62 mM). Moreover, the Papp A→B at 120 min, 10 μM in data set [1] was determined as 1 ± 0.2 ×10⁻⁶ cm/s.
As to `COCCOCCOCCOCCOCCOCCOCCOCCOCCNC(=O)OCCN1CCN(c2cc(Nc3ncc(C(=O)Nc4c(C)cccc4Cl)s3)nc(C)n2)CC1` [mPEG9-NHCOO-Dasatinib], the IC50 on ABL [2] came out at 0.31 nM. Besides, at ABL [2] (setting [5]), the “ABL AVG % Activity at 1.0E−09” value amounted to 4%, the “ABL AVG % Activity at 1.0E−10” value is 80%, the “ABL AVG % Activity at 1.0E−11” value is recorded as 97% and the “ABL AVG % Activity at 3.0E−09” value was −1%. Besides, on ABL [2] (setting [5]), the “ABL AVG % Activity at 3.0E−10” value is recorded as 47% and the “ABL AVG % Activity at 3.0E−11” value is listed as 92%.
